According to patent US3948927A, “2,2-Dimethyl-3R-carboxy-6S-amino-1-oxa-4-aza-5R-bicyclo-[3,2,0]heptan-7-o ne” (Queen's University, priority 1974, dated 1976):
Values after ≈ are worked out from the molar mass of the structure shown.

Assays:
Type in all cases: cell-based
[1] = system: P. morganii and Ps. aeruginosa; experiment: MIC of ampicillin versus resistant or β-lactamase producing bacteria, alone and with substituted azetidine-2-one; details: read-out: Minimum Inhibitory Concentration of ampicillin
[2] = antibacterial activity (organism not stated); details: at levels of 250 mcg./ml.
[3] = system: S. lutea; experiment: antibacterial activity vs. S. lutea; details: level relative to phthalimidopenicillin
Experimental: The compound was dissolved in methylene chloride and the solution extracted with 5% sodium bicarbonate. The aqueous extract was re-acidified to pH 2.5 and re-extracted with methylene chloride.
The crystalline trans acid in methylene chloride, was shaken with 5% bicarbonate for 5 min. The aqueous phase was then separated, acidified to pH 4.5 - 5.0 and extracted with methylene chloride. It was then acidifid to pH 2.5 and extracted twice with methylene chloride and twice with chloroform.

[4] = system: D. pneumoniae; experiment: MIC, antibacterial activity; details: Streptococcus pneumoniae; + 5% serum; 45% AAB at 10^-^3 dil'n + 50% Medium Shown
Text: (§1) *45% AAB at 10^-^3 dil'n + 50% Medium Shown

[5] = system: Str. pyogenes; experiment: MIC, antibacterial activity; details: Streptococcus pyogenes; + 5% serum; 45% AAB at 10^-^3 dil'n + 50% Medium Shown
Text: as §1

[6] = system: S. aureus Smith; experiment: MIC, antibacterial activity; details: Staphylococcus aureus
[7] = system: S. aureus BX-1633-2; experiment: MIC, antibacterial activity; details: Staphylococcus aureus
[8] = system: S. aureus Meth. Resist.; experiment: MIC, antibacterial activity; details: Staphylococcus aureus
[9] = system: S. aureus; experiment: MIC, antibacterial activity; details: Staphylococcus aureus
[10] = system: Sal. enteritidis; experiment: MIC, antibacterial activity; details: Salmonella enterica, at 10^-^4 dil'n
[11] = system: E. coli Juhl; experiment: MIC, antibacterial activity; details: Escherichia coli; at 10^-^4 dil'n
[12] = system: E. coli; experiment: MIC, antibacterial activity; details: Escherichia coli; at 10^-^4 dil'n
[13] = system: K. pneumoniae; experiment: MIC, antibacterial activity; details: Klebsiella pneumoniae; at 10^-^4 dil'n
[14] = system: Pr. mirabilis; experiment: MIC, antibacterial activity; details: Proteus mirabilis; at 10^-^4 dil'n
[15] = system: Pr. morganii; experiment: MIC, antibacterial activity; details: Morganella morganii; at 10^-^4 dil'n
[16] = system: Ps. aeruginosa; experiment: MIC, antibacterial activity; details: Pseudomonas aeruginosa; at 10^-^4 dil'n
[17] = system: Ser. marcescens; experiment: MIC, antibacterial activity; details: Serratia marcescens; at 10^-^4 dil'n

**Q.** With `CC1(C)S[C@@H]2[C@H](NC(=O)[C@H](N)c3ccccc3)C(=O)N2[C@H]1C(=O)O` [ampicillin] as the molecule, how does the MIC [1] read?
**A.** 500 to 1000 µg/mL

**Q.** For `CC(C)=C(C(=O)O)N1C(=O)[C@H]2N=C(Cc3ccccc3)O[C@H]21` [oxazoline carboxylic acid, 2-benzyl-6-(1'-carboxy-2'-methylprop-1'-enyl)-1-oxa-3,6-diaza-4S,5R-bicyclo [3,2,0] hept-2-en-7-one], which “activity as an antibacterial agent” value [2] is on record?
**A.** inactive

**Q.** For `CC1(C)O[C@@H]2[C@H](N3C(=O)c4ccccc4C3=O)C(=O)N2[C@H]1C(=O)O` [6-phthalimido oxapenicillin], which “antibacterial activity relative to phthalimidopenicillin” value [3] is on record?
**A.** one-tenth the level of phthalimidopenicillin

**Q.** For `CC1(C)S[C@@H]2[C@H](NC(=O)Cc3ccccc3)C(=O)N2[C@H]1C(=O)O` [Penicillin G], which MIC [4] is on record?
**A.** 0.004 µg/mL

**Q.** And the MIC [5]?
**A.** 0.004 µg/mL

**Q.** What about the MIC ([6]; at 10^-^4 dil'n) of the same molecule?
**A.** 0.016 µg/mL (≈ 0.0478 µM)

**Q.** What about the MIC ([6]; at 10^-^4 dil'n + 5% serum) of the same molecule?
**A.** 0.06 µg/mL

**Q.** What about the MIC ([7]; BX16332, at 10^-^2 dil'n) of the same molecule?
**A.** > 125 µg/mL

**Q.** And the MIC ([7]; BX16332, at 10^-^3 dil'n)?
**A.** 125 µg/mL (≈ 374 µM)

**Q.** And the MIC [8]?
**A.** 125 µg/mL (≈ 374 µM)

**Q.** And the MIC ([9]; at 10^-^2 dil'n)?
**A.** > 125 µg/mL

**Q.** And the MIC ([9]; at 10^-^3 dil'n)?
**A.** 63 µg/mL (≈ 188 µM)

**Q.** And the MIC [10]?
**A.** 0.13 µg/mL (≈ 0.389 µM)

**Q.** And the MIC [11]?
**A.** 32 µg/mL (≈ 95.7 µM)

**Q.** What about the MIC [12] of the same molecule?
**A.** 125 µg/mL (≈ 374 µM)

**Q.** What about the MIC [13] of the same molecule?
**A.** 2 µg/mL (≈ 5.98 µM)

**Q.** And the MIC [14]?
**A.** 1 µg/mL (≈ 2.99 µM)

**Q.** And the MIC [15]?
**A.** > 125 µg/mL

**Q.** What about the MIC [16] of the same molecule?
**A.** > 125 µg/mL

**Q.** What about the MIC [17] of the same molecule?
**A.** > 125 µg/mL
